# Test results taken from patent US6605459B2, “Methods for measuring cysteine and determining cysteine synthase activity” (Paradigm Genetics, Inc., priority 2001, dated 2003).
# Target: T1, cysteine synthase (Arabidopsis thaliana, UniProt Q9S6Z7)
# T1 construct: made in house; host or cells: E. coli BL21(DE3)lysS (pET30/CS) or Sf-9 insect cells (baculovirus, pFB/CS)
# Experiment: Assay tolerance of DMSO in the cysteine synthase assay
# Type: biochemical
# Settings: 0 to 2% DMSO (by volume)
# Protocol: A cysteine synthase assay was performed using various amounts of DMSO to test the assay compatibility of the DMSO. The results are shown in FIG. 24, where all values are the mean of triplicate determinations, and standard deviations are indicated.
# T1 sequence (Q9S6Z7 whole entry): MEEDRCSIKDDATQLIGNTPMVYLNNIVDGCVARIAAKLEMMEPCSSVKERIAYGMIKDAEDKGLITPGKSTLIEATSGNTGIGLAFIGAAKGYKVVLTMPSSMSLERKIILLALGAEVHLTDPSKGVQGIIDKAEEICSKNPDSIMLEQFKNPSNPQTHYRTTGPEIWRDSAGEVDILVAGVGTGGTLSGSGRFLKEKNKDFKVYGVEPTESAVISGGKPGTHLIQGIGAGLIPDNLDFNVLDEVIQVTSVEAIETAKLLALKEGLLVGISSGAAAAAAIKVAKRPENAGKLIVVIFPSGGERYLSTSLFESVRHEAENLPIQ
smiles,measurement,value
"C[S+](C)[O-] [DMSO, dimethyl sulfoxide]",inhibitory effect on cysteine synthase activity,No inhibitory effect
